Measured values as given in publication PMC2903749 (ACS medicinal chemistry letters, 2010).
Where two headings read alike, the source gives them in different places.

How the values were obtained:
proline racemase = conditions: cited from earlier work
Glutamate racemase (GR) = Glutamate racemase (GR) (Bacillus subtilis, UniProt P94556); assay: biochemical
Sequence of Glutamate racemase (GR) (P94556 whole entry): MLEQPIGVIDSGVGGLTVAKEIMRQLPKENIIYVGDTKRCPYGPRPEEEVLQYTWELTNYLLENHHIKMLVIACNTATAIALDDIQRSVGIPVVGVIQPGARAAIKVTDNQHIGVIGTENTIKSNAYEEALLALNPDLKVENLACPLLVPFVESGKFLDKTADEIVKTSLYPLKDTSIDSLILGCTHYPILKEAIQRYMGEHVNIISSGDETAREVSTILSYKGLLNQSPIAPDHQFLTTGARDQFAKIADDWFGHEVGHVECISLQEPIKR

SMILES | Ki (proline racemase; read-out: Ki1, first of two binding states) [µM] | Ki (proline racemase; read-out: Ki2, second of two binding states) [µM] | Ki (Glutamate racemase (GR)) [µM]
O=C(O)c1ccc[nH]1 [PYC, pyrrole-2-carboxylic acid] | 4.6 | 30 | 
NC(=O)CC[C@H](N)C(=O)O [glutamine] |  |  | 50000
